Active and inactive are the calls of the source.
Columns and labels:
Nonstructural protein 1 = Nonstructural protein 1 (Influenza A virus, UniProt Q194T2); assay type: functional, Influenza A virus (A/California/07/2009(H1N1))
[1] = human group III sPLA2 inhibitors, dose response, biochemical, QFRET, IC50 (AID 743457);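 also: green fluorescence rise as the enzyme cleaves BODIPY PC-A2 in liposomes; potency for inhibition of the enzyme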
[2] = target: Matrix metalloproteinase-14 (Homo sapiens, UniProt P50281); assay: Dose Response confirmation of uHTS hits for a small molecule inhibitors of MT1-MMP activation in a fluorescence assay set 1.; assay type: functional
[3] = target: T1, Methionyl-tRNA synthetase, putative (Trypanosoma brucei brucei, UniProt Q38C91); assay type: functional, Trypanosoma brucei brucei strain 927/4 GUTat10.1
[4] = target: T2, Heat shock factor protein 1 (Mus musculus, UniProt P38532); assay: inhibition of MG132-induced HSE-luciferase signal, confirmation, cell-based, NIH3T3, luminescence, dose retest (AID 2382); assay type: functional;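 also: NIH3T3 fibroblasts with HSF1-driven luciferase reporter stressed by proteasome inhibitor MG132; luminescence from HSF1-driven luciferase expression after 8 hours of MG132 stress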
T2 sequence (P38532 whole entry): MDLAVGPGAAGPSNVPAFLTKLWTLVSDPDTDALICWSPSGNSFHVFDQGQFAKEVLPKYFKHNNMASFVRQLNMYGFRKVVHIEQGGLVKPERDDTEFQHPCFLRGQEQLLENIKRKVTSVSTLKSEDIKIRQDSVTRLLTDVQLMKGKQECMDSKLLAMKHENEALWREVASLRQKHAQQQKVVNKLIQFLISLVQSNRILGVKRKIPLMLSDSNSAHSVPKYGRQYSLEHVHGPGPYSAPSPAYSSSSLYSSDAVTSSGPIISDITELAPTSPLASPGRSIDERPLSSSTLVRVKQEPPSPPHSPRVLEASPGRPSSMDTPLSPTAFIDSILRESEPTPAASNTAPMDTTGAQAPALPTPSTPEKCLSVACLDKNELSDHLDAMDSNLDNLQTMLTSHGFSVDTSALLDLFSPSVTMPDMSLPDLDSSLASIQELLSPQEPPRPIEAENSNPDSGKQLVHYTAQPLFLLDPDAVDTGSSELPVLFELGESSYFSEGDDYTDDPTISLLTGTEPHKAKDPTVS

[5] = target: T1, Methionyl-tRNA synthetase, putative; assay type: functional, Trypanosoma brucei brucei strain 927/4 GUTat10.1; remark: listed apart in the source
[6] = HEK293T cytotoxicity, dose response, cytotoxicity control for miR-122 modulator project, cell-based, inhibitor set, cherry-pick, set 2 (AID 720697); assay type: functional
[7] = target: T3, Probable nicotinate-nucleotide adenylyltransferase (Staphylococcus aureus (strain N315), UniProt P65502); assay type: functional, Staphylococcus aureus subsp. aureus N315; conditions: read-out: IC50_Mean;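 as to IC50 Mean: confirmatory dose-response retesting of NadD inhibitor hits first found in an ultra-high-throughput screen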
[8] = target: T3, Probable nicotinate-nucleotide adenylyltransferase; assay type: functional, Staphylococcus aureus subsp. aureus N315
Paired box protein Pax-8 = Paired box protein Pax-8 (Homo sapiens, UniProt Q06710); assay: inhibitors of PAX8-driven TPO luciferase reporter, dose response, RMG-I cells, cherry-pick (AID 687027); assay type: functional, cell-based;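 also: luciferase reporter driven by Pax8 target thyroperoxidase promoter measured by SteadyGlo luminescence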
[9] = target: Fructose-bisphosphate aldolase (Mycobacterium tuberculosis, UniProt P9WQA3); assay: Fluorescence-based biochemical high throughput dose response assay for inhibitors of the fructose-bisphosphate aldolase (FBA) of M. tuberculosis.; assay type: functional
[10] = cytotoxicity toward NIH3T3 fibroblasts, dose response, counter-screen, cell-based, ATP luminescence, mouse fibroblasts (AID 2010); assay type: functional;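 also: cells exposed to compound for about 90 hours before reading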
INS1 = assay: beta cell apoptosis inhibitors, cytokine rescue, dose response, luminescence, retest (AID 449756); assay type: functional, cell-based; conditions: Rattus norvegicus;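 also: cell death triggered by IL-1 beta plus TNF-alpha plus IFN-gamma mixture; protective hits raise ATP signal compared with cytokine alone wells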
[11] = target: T4, DNA repair protein RAD52 homolog (Homo sapiens, UniProt P43351); assay type: functional, biochemical
T4 sequence (P43351 whole entry): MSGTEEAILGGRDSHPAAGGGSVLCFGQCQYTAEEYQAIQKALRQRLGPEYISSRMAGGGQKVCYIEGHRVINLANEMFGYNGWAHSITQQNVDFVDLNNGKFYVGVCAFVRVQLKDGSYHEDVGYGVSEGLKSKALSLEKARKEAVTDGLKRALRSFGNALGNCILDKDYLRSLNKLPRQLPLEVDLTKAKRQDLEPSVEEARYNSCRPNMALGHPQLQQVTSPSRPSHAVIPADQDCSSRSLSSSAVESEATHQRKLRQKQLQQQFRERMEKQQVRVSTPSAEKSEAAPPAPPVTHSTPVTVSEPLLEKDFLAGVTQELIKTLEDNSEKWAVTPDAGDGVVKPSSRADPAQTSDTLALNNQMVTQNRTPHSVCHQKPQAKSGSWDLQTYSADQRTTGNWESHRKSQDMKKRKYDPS

[12] = target: Neurotensin receptor type 1 (Homo sapiens, UniProt P30989); assay type: functional;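 also: Image-based confirmatory dose-response assay measuring agonist activity at NTR1; NTR1-expressing U2OS osteosarcoma cells imaged for beta-arrestin GFP spot formation; agonist potency where compounds increase beta-arrestin recruitment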
BJ [13] = assay: cells; assay type: functional, cell-based; conditions: Homo sapiens
[14] = target: T5, Rac GTPase-activating protein 1 (Homo sapiens, UniProt Q9H0H5); assay: MgcRacGAP GTPase-activating activity inhibitors, confirmation, biochemical, ADP Hunter fluorescence, primary and confirmatory (AID 624330); assay type: functional
T5 sequence (Q9H0H5 whole entry): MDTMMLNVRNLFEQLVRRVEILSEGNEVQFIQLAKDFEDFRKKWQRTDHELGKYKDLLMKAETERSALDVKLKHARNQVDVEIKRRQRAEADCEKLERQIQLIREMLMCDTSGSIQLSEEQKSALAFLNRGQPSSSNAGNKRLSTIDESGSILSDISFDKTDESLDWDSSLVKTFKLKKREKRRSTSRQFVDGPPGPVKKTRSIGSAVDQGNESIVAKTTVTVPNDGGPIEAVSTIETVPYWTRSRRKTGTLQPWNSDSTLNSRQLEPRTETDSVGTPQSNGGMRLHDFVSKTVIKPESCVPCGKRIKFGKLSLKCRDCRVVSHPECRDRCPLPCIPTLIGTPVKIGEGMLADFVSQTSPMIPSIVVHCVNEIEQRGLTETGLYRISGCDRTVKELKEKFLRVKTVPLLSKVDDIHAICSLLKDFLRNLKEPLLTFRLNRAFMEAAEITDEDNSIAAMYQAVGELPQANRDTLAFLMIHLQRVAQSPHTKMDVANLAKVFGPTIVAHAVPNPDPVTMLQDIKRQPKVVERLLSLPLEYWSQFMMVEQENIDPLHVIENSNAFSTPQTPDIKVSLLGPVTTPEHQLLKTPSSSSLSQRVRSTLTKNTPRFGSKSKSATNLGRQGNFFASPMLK

BJ [15] = assay: cytotoxicity toward BJ-TERT fibroblasts, dose response, cell-based, RAS-independent, luminescence (AID 1933); assay type: functional; conditions: Homo sapiens
BJ [16] = assay: cytotoxicity toward BJ-TERT-LT-ST fibroblasts, dose response, cell-based, RAS-independent, luminescence (AID 1935); assay type: functional; conditions: Homo sapiens;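 also: BJ fibroblasts immortalized with TERT plus LT and ST oncogenes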
[17] = cytotoxicity toward DRD oncogenic fibroblasts, dose response, cell-based, non-viral oncogenic, luminescence (AID 1934); assay type: functional; conditions: Homo sapiens
[18] = HeLa cell cytotoxicity, dose response, cytotoxicity control for MgcRacGAP inhibitor project (AID 624300); assay type: functional
[19] = inhibitors of intracellular T. cruzi replication, confirmation, NIH3T3 host cells, beta-gal luminescence (AID 2044); assay type: functional, cell-based;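 also: intracellular parasites grown in NIH/3T3 mouse fibroblasts as host cells; luminescent beta-galactosidase reporter signal from transgenic T. cruzi replicating inside host cells; inhibitors lower the luminescence signal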
[20] = non-specific cell cytotoxicity, dose response, cytotoxicity control for PAX8 inhibitor project, plate reader, dry powder samples (AID 743021); assay type: functional, cell-based

T1 sequence (Q38C91 whole entry): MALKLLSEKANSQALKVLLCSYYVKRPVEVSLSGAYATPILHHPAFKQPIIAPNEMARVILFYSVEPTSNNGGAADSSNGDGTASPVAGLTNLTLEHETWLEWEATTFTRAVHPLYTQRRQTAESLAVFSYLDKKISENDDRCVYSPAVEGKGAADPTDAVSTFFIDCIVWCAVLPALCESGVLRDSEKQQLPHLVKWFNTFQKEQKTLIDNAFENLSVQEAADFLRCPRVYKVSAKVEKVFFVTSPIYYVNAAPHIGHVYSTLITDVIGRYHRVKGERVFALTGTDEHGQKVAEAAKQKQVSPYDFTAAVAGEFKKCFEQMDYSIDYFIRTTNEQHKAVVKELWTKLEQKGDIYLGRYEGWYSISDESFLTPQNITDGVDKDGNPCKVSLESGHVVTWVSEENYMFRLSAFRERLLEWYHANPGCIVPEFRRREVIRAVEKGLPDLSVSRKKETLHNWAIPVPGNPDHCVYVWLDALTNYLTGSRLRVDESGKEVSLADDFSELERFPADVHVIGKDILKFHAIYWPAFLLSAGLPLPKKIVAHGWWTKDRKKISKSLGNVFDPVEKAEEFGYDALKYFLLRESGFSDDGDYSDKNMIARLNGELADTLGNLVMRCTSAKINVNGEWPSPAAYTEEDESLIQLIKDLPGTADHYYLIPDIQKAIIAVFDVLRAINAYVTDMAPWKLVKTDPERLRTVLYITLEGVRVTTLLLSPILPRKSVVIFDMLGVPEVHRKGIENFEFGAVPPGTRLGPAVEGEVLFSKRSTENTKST
T3 sequence (P65502 whole entry): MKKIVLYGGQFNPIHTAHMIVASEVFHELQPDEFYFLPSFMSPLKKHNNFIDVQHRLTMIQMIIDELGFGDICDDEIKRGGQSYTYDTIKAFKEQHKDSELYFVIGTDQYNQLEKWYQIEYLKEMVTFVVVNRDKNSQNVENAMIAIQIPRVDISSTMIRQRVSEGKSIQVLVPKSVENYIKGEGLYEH
Chain of Paired box protein Pax-8 (Q06710 whole entry): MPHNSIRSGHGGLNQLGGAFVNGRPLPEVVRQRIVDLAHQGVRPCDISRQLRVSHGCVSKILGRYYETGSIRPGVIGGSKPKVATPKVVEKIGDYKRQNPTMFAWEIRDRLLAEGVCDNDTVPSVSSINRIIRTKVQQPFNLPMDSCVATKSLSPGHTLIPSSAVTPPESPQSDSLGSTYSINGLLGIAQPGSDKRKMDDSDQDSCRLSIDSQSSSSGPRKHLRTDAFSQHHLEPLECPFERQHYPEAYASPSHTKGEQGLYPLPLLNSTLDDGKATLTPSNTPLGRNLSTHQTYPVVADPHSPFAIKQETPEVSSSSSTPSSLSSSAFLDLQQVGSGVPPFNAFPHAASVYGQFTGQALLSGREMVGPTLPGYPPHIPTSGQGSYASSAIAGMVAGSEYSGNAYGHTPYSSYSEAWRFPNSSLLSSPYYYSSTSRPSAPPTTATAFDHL
Chain of Neurotensin receptor type 1 (P30989 whole entry): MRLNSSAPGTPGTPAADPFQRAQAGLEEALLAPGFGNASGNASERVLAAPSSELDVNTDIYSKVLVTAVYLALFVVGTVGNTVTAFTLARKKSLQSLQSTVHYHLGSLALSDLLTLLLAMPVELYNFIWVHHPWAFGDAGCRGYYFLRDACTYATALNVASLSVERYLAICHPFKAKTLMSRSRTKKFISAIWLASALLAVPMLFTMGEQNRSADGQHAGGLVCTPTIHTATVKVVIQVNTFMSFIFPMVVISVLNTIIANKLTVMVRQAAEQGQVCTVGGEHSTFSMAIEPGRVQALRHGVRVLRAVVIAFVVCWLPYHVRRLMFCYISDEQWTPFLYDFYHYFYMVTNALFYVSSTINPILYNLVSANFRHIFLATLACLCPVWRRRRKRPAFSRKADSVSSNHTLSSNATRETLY
Chain of Nonstructural protein 1 (Q194T2 whole entry): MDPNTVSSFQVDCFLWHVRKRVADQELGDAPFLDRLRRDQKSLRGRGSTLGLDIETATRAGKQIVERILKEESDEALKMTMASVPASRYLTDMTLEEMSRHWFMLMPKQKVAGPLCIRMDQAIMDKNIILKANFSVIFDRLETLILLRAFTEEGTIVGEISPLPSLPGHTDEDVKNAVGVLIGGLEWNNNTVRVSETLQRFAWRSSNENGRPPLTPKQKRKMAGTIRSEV
Chain of Fructose-bisphosphate aldolase (P9WQA3 whole entry): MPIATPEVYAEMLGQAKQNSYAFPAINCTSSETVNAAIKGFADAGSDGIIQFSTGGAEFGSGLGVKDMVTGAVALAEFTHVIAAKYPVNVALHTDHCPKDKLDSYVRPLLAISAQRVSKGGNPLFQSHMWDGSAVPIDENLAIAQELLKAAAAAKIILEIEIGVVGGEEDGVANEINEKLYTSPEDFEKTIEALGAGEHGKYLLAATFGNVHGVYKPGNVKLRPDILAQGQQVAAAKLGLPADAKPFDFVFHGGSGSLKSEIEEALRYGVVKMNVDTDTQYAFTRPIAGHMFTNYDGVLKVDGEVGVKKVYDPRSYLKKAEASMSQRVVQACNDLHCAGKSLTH

SMILES: CC1(C)CCCN(C(=O)c2ccc3c(c2NCCO)C(=O)c2ccccc2C3=O)C1
- IC50 (Nonstructural protein 1): 15.2 µM (active)
- IC50 [1]: > 122 µM (inactive)
- IC50 [2]: 17.2 µM (active)

SMILES: COc1ccc(NC(=S)N2CCC(c3nc4ccc(Cl)cc4[nH]3)CC2)c(OC)c1
- IC50 [3]: 53.5 µM (inactive)
- EC50 [4]: > 195 µM (not active)
- IC50 [5]: 26.1 µM (inactive)

SMILES: CCN(CC)CCOc1cccc(C(C)C)c1
- AC50 [6]: 6.91 µM (active)

SMILES: Oc1ccc(C[C@H]2CNC(=S)N2CC2CCCN2C[C@H](Cc2ccccc2)N2C[C@H](Cc3ccc(O)cc3)N(CCc3ccccc3)C2=S)cc1 (some centres undefined)
- IC50 [7]: 30.5 µM (active)
- IC50 [8]: 17 µM (active)
- AC50 (Paired box protein Pax-8): 11.5 µM (active)

SMILES: CN1CCN(C(=O)COc2ccc(-c3nc4ccccc4s3)cc2)CC1
- IC50 [9]: 3.57 µM (active)

SMILES: CC(C)Nc1ccc(Nc2ccnc3cc4ccccc4cc23)cc1
- EC50 [10]: 6.48 µM (active)
- AC50 (INS1): 3.15 µM (active)
- AC50 [11]: 0.782 µM (active)
- EC50 [12]: 12.2 µM (active)
- EC50 (BJ [13]): 9.05 µM (inconclusive)
- IC50 [14]: 20 µM (active)
- EC50 (BJ [15]): 3.71 µM (inconclusive)
- EC50 (BJ [16]): 5.35 µM (inconclusive)
- EC50 [17]: 4.73 µM (active)
- CC50 [18]: 17.2 µM (active)
- EC50 [19]: 0.632 µM (active)
- AC50 [20]: 51.2 µM (active)
- AC50 (Paired box protein Pax-8): 7.04 µM (active)

— ChEMBL document CHEMBL1201862, “PubChem BioAssay data set” (2004)
